Laboratory results as given in ChEMBL document CHEMBL3508693 (2016).

Columns and labels:
[1] = % aliskiren recovered as M2 from M3 in hydrolysed following single intravenous administration of 10 mg.Kg-1 [14C] aliskiren hemifumarate in male rat; type: ADME, organism-based, HAN:WIST(SPF), Bile; conditions: in vivo
[2] = % aliskiren hemifumarate recovered as M2 from M3 in faeces following single oral dose of 300 mg [14C]SPP100 studied in healthy men; type: ADME, organism-based, Feces; conditions: human, in vivo, at 300 mg
[3] = % aliskiren recovered as M2 from M3 in urine following single intravenous administration of 10 mg.Kg-1 [14C] aliskiren hemifumarate in male rat; type: ADME, organism-based, HAN:WIST(SPF); conditions: in vivo
[4] = % aliskiren hemifumarate (0-168h) recovered as M2 from M3 in urine following single oral dose of [14C] aliskiren hemifumarate at 3 mg.Kg-1 level in marmoset; type: ADME, organism-based, Callithrix jacchus; conditions: in vivo
[5] = % aliskiren hemifumarate (0-72h) recovered as M2 from M3 in faeces following single intravenous dose of [14C] aliskiren hemifumarate at 1 mg.Kg-1 level in marmoset; type: ADME, organism-based, Callithrix jacchus, Feces; conditions: in vivo
[6] = % of radioactivity recovered as M2 from M3 in plasma following oral administration of [14C] aliskiren hemifumarate at 100 mg.Kg-1 level in rat; type: ADME, organism-based, Albino HAN:WIST; conditions: in vivo
[7] = % of radioactivity recovered as M2 from M3 in urine following intravenous administration of [14C] aliskiren hemifumarate at 10 mg.Kg-1 level in rat; type: ADME, organism-based, Albino HAN:WIST; conditions: in vivo
[8] = % aliskiren hemifumarate recovered as M2 from M3 in urine and faeces following single oral dose of 300 mg [14C]SPP100 studied in healthy men; type: ADME, organism-based, Urine/Feces; conditions: human, in vivo, at 300 mg
[9] = % of radioactivity recovered as M2 from M3 in faeces following oral administration of [14C] aliskiren hemifumarate at 100 mg.Kg-1 level in rat; type: ADME, organism-based, Albino HAN:WIST, Feces; conditions: in vivo
[10] = % aliskiren recovered as metabolite M2 in urine following 10 day repeated oral administration of [14C] aliskiren hemifumarate at 100 mg.Kg-1 level studied in rat; type: ADME, organism-based, Albino HAN:WIST; conditions: in vivo, 240 h
[11] = % aliskiren recovered as metabolite M2 in faeces following 10 day repeated oral administration of [14C] aliskiren hemifumarate at 100 mg.Kg-1 level studied in rat; type: ADME, organism-based, Albino HAN:WIST, Feces; conditions: in vivo, 240 h
[12] = % aliskiren hemifumarate recovered as M2 from M3 in urine following single oral dose of 300 mg [14C]SPP100 studied in healthy men; type: ADME, organism-based; conditions: human, in vivo, at 300 mg
[13] = % aliskiren recovered as M2 from M3 in bile following single intravenous administration of 10 mg.Kg-1 [14C] aliskiren hemifumarate in male rat; type: ADME, organism-based, HAN:WIST(SPF); conditions: in vivo
[14] = % aliskiren hemifumarate (0-72h) recovered as M2 from M3 in faeces following single oral dose of [14C] aliskiren hemifumarate at 3 mg.Kg-1 level in marmoset; type: ADME, organism-based, Callithrix jacchus, Feces; conditions: in vivo
[15] = % aliskiren hemifumarate (0-168h) recovered as M2 from M3 in urine following single intravenous dose of [14C] aliskiren hemifumarate at 1 mg.Kg-1 level in marmoset; type: ADME, organism-based, Callithrix jacchus; conditions: in vivo
[16] = % aliskiren recovered as metabolite M2 in plasma following 10 day repeated oral administration of [14C] aliskiren hemifumarate at 100 mg.Kg-1 level studied in rat; type: ADME, organism-based, Albino HAN:WIST; conditions: in vivo, 240 h
[17] = % of radioactivity recovered as M2 from M3 in plasma following intravenous administration of [14C] aliskiren hemifumarate at 10 mg.Kg-1 level in rat; type: ADME, organism-based, Albino HAN:WIST; conditions: in vivo
[18] = % of radioactivity recovered as M2 from M3 in urine following oral administration of [14C] aliskiren hemifumarate at 100 mg.Kg-1 level in rat; type: ADME, organism-based, Albino HAN:WIST; conditions: in vivo
[19] = % of radioactivity recovered as M2 from M3 in faeces following intravenous administration of [14C] aliskiren hemifumarate at 10 mg.Kg-1 level in rat; type: ADME, organism-based, Albino HAN:WIST, Feces; conditions: in vivo
[20] = % aliskiren recovered as M2 from M3 of receiver rat following duodenal infusion of radioactivity through bile from donor rat treated with single intravenous administration of 10 mg.Kg-1 [14C] aliskiren hemifumarate; type: ADME, organism-based, HAN:WIST(SPF); conditions: in vivo
[21] = % of radioactivity recovered as M1 in urine following oral administration of [14C] aliskiren hemifumarate at 100 mg.Kg-1 level in rat; type: ADME, organism-based, Albino HAN:WIST; conditions: in vivo
[22] = % of radioactivity recovered as M1 in plasma following intravenous administration of [14C] aliskiren hemifumarate at 10 mg.Kg-1 level in rat; type: ADME, organism-based, Albino HAN:WIST; conditions: in vivo
[23] = % of radioactivity recovered as M1 in plasma following oral administration of [14C] aliskiren hemifumarate at 100 mg.Kg-1 level in rat; type: ADME, organism-based, Albino HAN:WIST; conditions: in vivo
[24] = % aliskiren recovered as M1 of receiver rat following duodenal infusion of radioactivity through bile from donor rat treated with single intravenous administration of 10 mg.Kg-1 [14C] aliskiren hemifumarate; type: ADME, organism-based, HAN:WIST(SPF); conditions: in vivo
[25] = % of radioactivity recovered as M1 in urine following intravenous administration of [14C] aliskiren hemifumarate at 10 mg.Kg-1 level in rat; type: ADME, organism-based, Albino HAN:WIST; conditions: in vivo
[26] = % aliskiren recovered as M1 in bile following single intravenous administration of 10 mg.Kg-1 [14C] aliskiren hemifumarate in male rat; type: ADME, organism-based, HAN:WIST(SPF); conditions: in vivo
[27] = % aliskiren hemifumarate recovered as M1 in urine and faeces following single oral dose of 300 mg [14C]SPP100 studied in healthy men; type: ADME, organism-based, Urine/Feces; conditions: human, in vivo, at 300 mg
[28] = % aliskiren hemifumarate recovered as M1 in urine following single oral dose of 300 mg [14C]SPP100 studied in healthy men; type: ADME, organism-based; conditions: human, in vivo
[29] = % of radioactivity recovered as M1 in faeces following intravenous administration of [14C] aliskiren hemifumarate at 10 mg.Kg-1 level in rat; type: ADME, organism-based, Albino HAN:WIST, Feces; conditions: in vivo
[30] = % aliskiren recovered as M1 in hydrolysed following single intravenous administration of 10 mg.Kg-1 [14C] aliskiren hemifumarate in male rat; type: ADME, organism-based, HAN:WIST(SPF), Bile; conditions: in vivo
[31] = % of radioactivity recovered as M1 in faeces following oral administration of [14C] aliskiren hemifumarate at 100 mg.Kg-1 level in rat; type: ADME, organism-based, Albino HAN:WIST, Feces; conditions: in vivo
[32] = % aliskiren recovered as M1 in urine following single intravenous administration of 10 mg.Kg-1 [14C] aliskiren hemifumarate in male rat; type: ADME, organism-based, HAN:WIST(SPF); conditions: in vivo
[33] = % aliskiren hemifumarate recovered as M1 in faeces following single oral dose of 300 mg [14C]SPP100 studied in healthy men; type: ADME, organism-based, Feces; conditions: human, in vivo, at 300 mg

COc1ccc(C[C@@H](C[C@H](N)[C@@H](O)C[C@H](C(=O)NCC(C)(C)C(N)=O)C(C)C)C(C)C)cc1OCCC(=O)O
Compound recovery [1]: 10.2% | Compound recovery [2]: 0.5% | Compound recovery [3]: 2.9% | Compound recovery [4]: 0.1% | Compound recovery [5]: 6% | Compound recovery [6]: <= 2% | Compound recovery [7]: <= 2% | Compound recovery [8]: 0.6% | Compound recovery [9]: <= 2% | Compound recovery [10]: OUTCOME = Observed, VALUE = Minor amounts | Compound recovery [11]: OUTCOME = Observed, VALUE = Minor amounts | Compound recovery [12]: < 0.1% | Compound recovery [13]: 7.4% | Compound recovery [14]: 2% | Compound recovery [15]: 0.1% | Compound recovery [16]: OUTCOME = Observed, VALUE = Minor amounts | Compound recovery [17]: <= 2% | Compound recovery [18]: <= 2% | Compound recovery [19]: > 2% | Compound recovery [20]: 15.4%

COCCCOc1cc(C[C@@H](C[C@H](N)[C@@H](O)C[C@H](C(=O)NCC(C)(C)C(N)=O)C(C)C)C(C)C)ccc1O
Compound recovery [21]: <= 2% | Compound recovery [22]: OUTCOME = Not detected or not investigated | Compound recovery [23]: OUTCOME = Not detected or not investigated | Compound recovery [24]: OUTCOME = Not detected | Compound recovery [25]: <= 2% | Compound recovery [26]: 1.3% | Compound recovery [27]: 0.1% | Compound recovery [28]: OUTCOME = Not detected | Compound recovery [29]: > 2% | Compound recovery [30]: 2.8% | Compound recovery [31]: <= 2% | Compound recovery [32]: 0.8% | Compound recovery [33]: 0.1%
